Assay results from the NIST ThermoML archive (doi:10.1021/je0340755).

Assay: xn = mol fraction of the nth substance listed
Conditions: 101.3 kPa, Liquid; for viscosity: Capillary tube (Ostwald / Ubbelohde) method

OCCCO [propan-1,3-diol] + O
Conditions	mass density, 328.15 K [kg/m3]	mass density, 338.15 K [kg/m3]	speed of sound, 328.15 K [m/s]	speed of sound, 338.15 K [m/s]	viscosity, 338.15 K [mPa·s]
x2 = 0.0622	–	1024.56	–	1565.1	7.386
x2 = 0.1496	–	1024.59	–	1571.2	6.633
x2 = 0.2563	–	1024.49	–	1582.3	5.732
x2 = 0.35	–	1024.2	–	1594.8	4.946
x2 = 0.4555	–	1023.41	–	1611.1	4.065
x2 = 0.5	–	1022.84	–	1616.8	3.696
x2 = 0.5548	–	1021.85	–	1623.9	3.247
x2 = 0.6522	–	1019	–	1634.1	2.473
x2 = 0.7553	–	1013.69	–	1639	1.715
x2 = 0.8522	–	1005.25	–	1632	1.096
x2 = 0.9085	–	998.04	–	1616	0.797
x2 = 0.9147	–	997.1	–	1613.2	0.767
x2 = 0.9255	–	995.41	–	1608.2	0.717
x2 = 0.935	–	993.83	1613.2	1603.1	0.675
x2 = 0.9548	995.78	990.28	1597.2	1591.1	0.593
x2 = 0.9556	995.62	990.13	1596.1	1591.3	0.59
x2 = 0.9602	994.7	989.24	1591.8	1587.1	0.572
x2 = 0.97	992.65	987.28	1582.1	1579.9	0.536
x2 = 0.9801	990.44	985.14	1571.1	1571	0.501
x2 = 0.9897	988.21	982.99	1559.2	1562	0.469
x2 = 0.9921	987.63	982.43	1556.2	1559.1	0.462
x2 = 0.9951	986.91	981.73	1552.2	1556	0.453
